For one series, the system named is MCF-7 xenografts. Nature of the series: Tumor suppression in xenograft mice. Format: in vivo, NCr nu/nu mice. The conditions noted are these: oral administration at 100 mg/kg. The protocol: (§1) Animals were handled under laminar-flow hoods.
(§2) Gemzar™ administered at a dose of 80 mg/kg IP Q3D was used as a positive control.

A further series deals with PC-3 xenografts. The series can be described thus: Tumor suppression in xenograft mice. It counts as in vivo, NCr nu/nu mice. The settings on record: oral administration at 150 mg/kg. The protocol:
as §1, §2

Series [1] can be described thus: Distribution in plasma and tumors of animals. It counts as in vivo. The protocol:
The distribution of compound A1 in the plasma and tumors of animals was assessed.

For another series, the system named is caspase-3. The series can be described thus: Caspase staining as biomarker in tumors. Format: in vivo. The settings on record: 60 mg/kg by IV administration. As for the experimental part: Caspase staining also was assessed as a biomarker for compound A1 treatment of tumors.
Series [2] can be described thus: Pharmacokinetics after IV and PO dosing. The settings on record: for AUC(0-t) at 8 h: mouse.
Experimental: The pharmacokinetics properties of drugs were investigated in ICR mice following an intravenous (IV) bolus and oral (PO) doses of drug at 5 mg/kg and 25 mg/kg respectively. Blood samples were collected at predetermined times and the plasma separated. Plasma was separated from the blood samples collected at 5,15 and 30 minutes and 1, 2, 4, 8 and 24 hours post-dose.
Drug levels were quantified by the LC/MS/MS method described below. Noncompartmental pharmacokinetic analysis was applied for intravenous administration. […] The terminal t1/2 and Co were calculated using the last three and the first three data points, respectively
Bioanalysis was performed using a Quattro Micro LC/MS/MS instrument in the MRM detection mode, with an internal standard (IS). Briefly, 15 µL plasma samples were prepared for analysis using protein precipitation with 120 µL of acetonitrile. The supernatants were transferred into a 96 well plate and subjected to LC-MS/MS analysis using a Phenomenex Polar-RP HPLC column. The mobile phases were 10 mM NH4HCO3 in water (Solution-A) and 10 mM NH4HCO3 in methanol (Solution-B). […] Quantitation of the analytes was performed in the batch mode with two bracketing calibration curves according to the bioanalytical sample list
For another series, the system named is MiaPaca xenografts. Nature of the series: Tumor suppression in xenograft mice. Format: in vivo, NCr nu/nu mice. As for the experimental part: as §1, §2
Series [3] is described as follows: Body weight of tumor-bearing xenograft mice. Format: in vivo, NCr nu/nu mice. The conditions noted are these: BC-PC3 xenograft mice; Figure 4B.
The nature of series [4]: Tumor pharmacokinetic study. The conditions noted are these: 30 mg/kg IV QDx6.
Text: Plasma, blood and tumor samples were taken on day 1,4 and 6 and three animals sacrificed for each time point.
A further series relates to BC-PC3 cells. The series can be described thus: Tumor suppression in xenograft mice. The conditions noted are these: 60mg/kg QD IV, 100mg/kg BID IP, 50mg/kg BID IV, Figure 4A.
In another series the test system is MDA-MB-231 xenografts. The series can be described thus: Tumor suppression in xenograft mice. The settings on record: IV at 30 and 60 mg/kg and oral at 200 mg/kg.
The test system of the next series is A549. The series can be described thus: Cell proliferation assay (Alamar Blue). It counts as cell-based. The conditions noted are these: Homo sapiens, 96 h, A549 cells, four days. The procedure, abridged:
(§3)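 Fluorescence read-out (ex 544 nm, em 590 nm) after a four-hour Alamar Blue incubation, which follows four days of compound exposure at 37°C in 5% CO2. Seeding density is 4,000-5,000 cells per well.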

The test system of the next series is HL-60. The series can be described thus: Cell proliferation assay (Alamar Blue). The conditions noted are these: Homo sapiens, 96 h, HL-60 cells, four days. Format: cell-based. The procedure, abridged:
as §3

In a further series the test system is LNCaP. The series can be described thus: Cell proliferation assay (Alamar Blue). The conditions noted are these: Homo sapiens, 96 h, LNCaP cells, four days. It counts as cell-based. Summed up:
as §3

The test system of another series is MCF-7. Nature of the series: Cell proliferation assay (Alamar Blue). It counts as cell-based. The conditions noted are these: Homo sapiens, MCF7, 96 h, MCF-7 cells, four days. Summed up:
as §3

The next series has as its system MDAMB231. The series can be described thus: Cell proliferation assay (Alamar Blue). Format: cell-based. The conditions noted are these: Homo sapiens, MDA-MB-231, 96 h, MDAMB231 cells, four days. Summed up: as §3
For a further series, the system named is Raji. The series can be described thus: Cell proliferation assay (Alamar Blue). It counts as cell-based. The settings on record: Homo sapiens, 96 h, Raji cells, four days. Summed up: as §3
Another series concerns K-562. The series can be described thus: Cell proliferation assay (Alamar Blue). Format: cell-based. The settings on record: Homo sapiens, K562, 96 h, K-562 cells, four days.
A further series concerns BxPC3. The series can be described thus: Cell proliferation assay (Alamar Blue). It counts as cell-based. The settings on record: Homo sapiens, BXPC-3, 96 h, BxPC3 cells, four days. Summed up:
as §3

The next series concerns COLO205. Nature of the series: Cell proliferation assay (Alamar Blue). Format: cell-based. The conditions noted are these: Homo sapiens, COLO 205, 96 h, COLO205 cells, four days. The procedure, abridged:
as §3

In another series the test system is H460. The series can be described thus: Cell proliferation assay (Alamar Blue). The settings on record: Homo sapiens, NCI-H460, 96 h, H460 cells, four days. Format: cell-based. Summed up:
as §3

Another series deals with MCF-10A. The series can be described thus: Cell proliferation assay (Alamar Blue). It counts as cell-based. The settings on record: Homo sapiens, 96 h, MCF-10A cells, four days. Summed up: as §3
For the next series, the system named is PanC1. Nature of the series: Cell proliferation assay (Alamar Blue). The conditions noted are these: Homo sapiens, PANC-1, 96 h, PanC1 cells, four days. It counts as cell-based. The procedure, abridged: as §3
For the next series, the system named is SK-OV-3. The series can be described thus: Cell proliferation assay (Alamar Blue). Format: cell-based. The settings on record: Homo sapiens, 96 h, SK-OV-3 cells, four days. The procedure, abridged: as §3
The next series concerns HL-60/MX2. The series can be described thus: Cell proliferation assay (Alamar Blue). The settings on record: Homo sapiens, HL60/MX2, 96 h, HL-60/MX2 cells, four days. It counts as cell-based. Summed up:
as §3

The next series has as its system HT29. Nature of the series: Cell proliferation assay (Alamar Blue). It counts as cell-based. The settings on record: Homo sapiens, HT-29, 96 h, HT29 cells, four days. Summed up: as §3
For the next series, the target named is endogenous CK2 (Homo sapiens, UniProt P68400). Nature of the series: Modulation of endogenous CK2 activity in Jurkat cells. The conditions noted are these: drug for two hours. Format: cell-based.
endogenous CK2, sequence (P68400 whole entry): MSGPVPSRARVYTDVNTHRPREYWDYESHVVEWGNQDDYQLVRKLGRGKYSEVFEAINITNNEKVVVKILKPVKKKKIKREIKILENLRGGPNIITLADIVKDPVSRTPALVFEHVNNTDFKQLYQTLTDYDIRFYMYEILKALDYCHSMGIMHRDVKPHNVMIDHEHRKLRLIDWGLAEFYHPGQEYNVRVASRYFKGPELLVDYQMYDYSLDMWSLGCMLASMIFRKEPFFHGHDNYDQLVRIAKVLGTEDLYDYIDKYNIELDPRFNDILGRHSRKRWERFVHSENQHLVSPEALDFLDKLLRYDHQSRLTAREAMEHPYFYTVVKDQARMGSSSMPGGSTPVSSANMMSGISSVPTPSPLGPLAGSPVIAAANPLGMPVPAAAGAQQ
endogenous CK2, sequence (P67870 2-215, further chain): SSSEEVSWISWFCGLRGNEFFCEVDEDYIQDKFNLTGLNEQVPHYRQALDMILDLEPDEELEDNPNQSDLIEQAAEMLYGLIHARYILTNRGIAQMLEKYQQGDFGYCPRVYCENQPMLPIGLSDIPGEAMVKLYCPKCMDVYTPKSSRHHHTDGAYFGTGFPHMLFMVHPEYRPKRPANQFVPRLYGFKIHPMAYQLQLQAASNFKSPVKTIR

Experimental for endogenous CK2: Before treatment cells were washed, resuspended at a density of about 10^6 cells/milliliter in medium containing 1% fetal calf serum and incubated in the presence of indicated mounts of drug for two hours. […] To 20 microliters of diluted protein was added 10 microliters of substrate peptide ([sequence], dissolved in ADB at a concentration of 1 mM) and 10 microliters of PKA Inhibitor cocktail (Upstate).

For the molecule `O=C(O)c1ccc2c(c1)nc(Nc1cccc(Cl)c1)c1ccncc12` [A1], the tumor growth entry with MCF-7 xenografts and in the series on PC-3 xenografts was “significantly inhibited tumor growth” each time. In addition, the results for the “compound identified in tumors” value in series [1] (30 mg/kg IV), in series [1] (60 mg/kg IV) and in [1] (200 mg/kg orally) were “about 42.9 micromolar”, around 7.0 µM and around 6.4 µM, respectively. Further, the “compound identified in plasma” value in series [1] (200 mg/kg orally) was around 9.5 µM. Also, the “caspase-3 cell staining levels versus untreated control cells” value in the series on caspase-3 was “four-fold greater”. For the same molecule, the CLs in [2] (ICR mice, IV 5 mg/kg) came to 25 mL/min/kg. The Kel in series [2] (ICR mice, IV 5 mg/kg) is 0.1586 h⁻¹; in [2] (ICR mice, PO 25 mg/kg), 0.1076 h⁻¹. The AUC(0-t) at 8 h is 2910 ng·h/mL in series [2] (in vivo, iv, 5 mg/kg) and 1580 ng·h/mL in series [2] (in vivo, po, 25 mg/kg).

On to `C#Cc1cccc(Nc2nc3cc(C(=O)O)ccc3c3cncnc23)c1` [A2], for which the tumor progression entry in the series with MiaPaca xenografts (IV at 50 and 60 mg/kg and IP at 100 mg/kg) is listed as “significantly inhibited tumor progression”; in the series on MiaPaca xenografts (oral 100 mg/kg QDx8 and 200 mg/kg QDx6, meglumine salt), “significantly inhibited tumor progression”; in the series with BC-PC3 cells, “significantly inhibited tumor progression”; in the series on MDA-MB-231 xenografts it was “significantly inhibited tumor progression”. The body weight result in [3] was “not significantly altering body weight”. The “half life on repeated dosing” value in [4] is recorded as “about doubles”. In series [4], the “minimum concentration after six days” value was 4-5 times higher. Besides, the “terminal slope on repeated dosing” value in [4] is given as “decreases”.

With `C#Cc1cccc(Nc2nc3cc(C(=O)O)ccc3c3cncnc23)c1` [drawing 380], the IC50 in the series with A549 came out at 21.2 µM; in the series on HL-60, 4.49 µM; in the series on LNCaP, 1.4 µM; with MCF-7 it was 1.27 µM; with MDAMB231 it was 4.25 µM; in the series on Raji, 3.38 µM. In the series on K-562, the IC50 came out at 1.2 µM.

For `O=C(O)c1ccc2c(c1)nc(Nc1ccc(Cl)cc1)c1ccncc12` [drawing 384], the half-inhibitory concentration (IC50) in the series with A549 was determined as 9.74 µM; with HL-60, 3.74 µM; with LNCaP, 7.39 µM; in the series on MCF-7, 0.76 µM; in the series on MDAMB231 it was 3.79 µM; in the series with Raji it was 5.46 µM. This molecule had a half-maximal inhibitory concentration (IC50) in the series on K-562 of 8.65 µM.

`C#Cc1cccc(Nc2nc3cc(C(=O)O)ccc3c3cnccc23)c1` [drawing 385]: the IC50 stood at 30.2 µM in the series with A549; 5.59 µM with HL-60; 17.1 µM with LNCaP; 1.43 µM with MCF-7; 11.8 µM with MDAMB231; 4.28 µM in the series with Raji. This molecule also showed a concentration for half-maximal inhibition (IC50) in the series on K-562 of 3.33 µM.

As to `O=C(O)c1ccc2c(c1)nc(Nc1cc(F)cc(F)c1)c1ccncc12` [drawing 387], the 50% inhibitory concentration (IC50) in the series on A549 came to 27.4 µM; in the series with HL-60, 4.81 µM; in the series with LNCaP it was 10.8 µM; with MCF-7 it was 1.89 µM; in the series with MDAMB231 it was 11 µM; in the series on Raji, 6.35 µM. Besides, half-maximal inhibition in the series with K-562 (IC50) required 3.26 µM.

`O=C(O)c1ccc2c(c1)nc(Nc1ccccc1)c1ccncc12` [drawing 443]: the half-inhibitory concentration (IC50) in the series with BxPC3 is 10.8 µM; in the series on COLO205 it was 8.92 µM; in the series with H460 it was 37.5 µM; with MCF-10A, 3.84 µM; in the series with PanC1, above 50 µM; in the series on SK-OV-3 it was 20.7 µM.

`O=C(O)c1ccc2c(c1)nc(Nc1cccc(Cl)c1)c1ccncc12` [drawing 448]: the half-inhibitory concentration (IC50) was determined as 2.75 µM in the series on BxPC3; 1.96 µM in the series with COLO205; 10.3 µM in the series on H460; 10.5 µM in the series on HL-60/MX2; 1.56 µM in the series on HT29; 0.53 µM in the series with MCF-10A. For the same molecule, the IC50 with PanC1 turned out to be 17.8 µM; in the series on SK-OV-3 it was 9.03 µM.

Take `O=C(O)c1ccc2c(c1)nc(Nc1cc(F)cc(F)c1)c1ncncc12` [drawing 449]: the half-inhibitory concentration (IC50) stood at 3.34 µM in the series with BxPC3; 5.69 µM in the series on COLO205; 4.19 µM in the series with H460; 12.4 µM in the series with HT29; 1.08 µM in the series with MCF-10A; 9.34 µM in the series with PanC1. Moreover, in the series on SK-OV-3, the 50% inhibitory concentration (IC50) worked out at 6.98 µM.

In the case of `C#Cc1cccc(Nc2nc3cc(C(=O)O)ccc3c3cncnc23)c1` [drawing 452], the concentration for half-maximal inhibition (IC50) amounted to 2.58 µM in the series on BxPC3; 7.04 µM with COLO205; 7.33 µM in the series with H460; 8.81 µM in the series with HL-60/MX2; 12.4 µM with HT29; 0.64 µM in the series with MCF-10A. Moreover, the IC50 stood at 2.34 µM in the series with PanC1 and 20.2 µM with SK-OV-3.

Turning to `CNc1ncc2c(n1)c(Nc1ccccc1)nc1cc(C(=O)O)ccc12` [drawing 455], the IC50 with BxPC3 turned out to be 1.83 µM; in the series on COLO205, 9.56 µM; in the series on H460, 4.06 µM; in the series on HL-60/MX2, 5.68 µM; in the series on HT29 it was 15.3 µM; in the series on PanC1 it was 15.9 µM. This molecule returned an IC50 in the series on SK-OV-3 of 1.06 µM.

For the molecule `C#Cc1cccc(Nc2nc3cc(C(=O)O)ccc3c3cnccc23)c1` [drawing 457], the half-inhibitory concentration (IC50) in the series on BxPC3 came to 3.7 µM; in the series on COLO205, 4.44 µM; in the series on H460, 13.8 µM; in the series on HT29, 45.5 µM; in the series with MCF-10A, 0.73 µM; in the series with PanC1 it was 4.07 µM. This molecule gave a 50% inhibitory concentration (IC50) in the series with SK-OV-3 of 23.4 µM.

The molecule `COC(=O)c1ccc2c(c1)nc(Nc1ccc(F)c(Cl)c1)c1ncncc12` [drawing 523] registered a concentration for half-maximal inhibition (IC50) at endogenous CK2 above 50 µM.

With `C#Cc1cccc(Nc2nc3cc(C(=O)O)ccc3c3cncnc23)c1` [drawing 547], in series [2] (ICR mice, PO 24.5 mg/kg), the “F(0-Inf)” value is 31.1%, the “F([…])” value is reported as 26.5% and the Kel came to 0.0594 h⁻¹. Besides, the AUC(0-t) at 8 h in series [2] (plasma, po, 24.5 mg/kg) turned out to be 6000 ng·h/mL.

These data come from EP2061765B1, “Serine-threonine protein kinase and PARP modulators” (Senhwa Biosciences, Inc., priority 2006, dated 2008).
